Measured values published in patent US20250368667A1, “USP1 INHIBITOR” (Shanghai Qilu Pharmaceutical Research and Development …, priority 2022, published 2025).

What follows are molecules tested against recombinant human His6-USP1/His6-UAF1 composite protein (Homo sapiens (Human), UniProt O94782) (assay: USP1 enzyme activity detection (Ub-Rho fluorescence)). Conditions: USP1/UAF1, Ub-Rho substrate 300 nM, 1 hour pre-incubation; read-out: IC50 (enzymatic inhibition of USP1).
Type: biochemical
Excerpt: USPli compounds were screened by USP1 enzyme activity detection experiment.
1.1 Experimental materials: recombinant human His6-USP1/His6-UAF1 composite protein. (R&D, catalog number E-568-050): Ubiquitin rhodamine 110 (Ub-Rho) (R&D, catalog number U-555-050); Fluorescent 384-well plate (Perkin Elmer, Art. No. 6007279).
1.2 Test sample: Compounds of table 3 in this application, whose structural formulae and preparation methods are shown in the above examples.
Using Equation (I) to fit data in Excel to obtain the inhibition value;
[formula] • wherein, the maximum signal value represents the luminous signal intensity of the positive control hole without adding the compound of the application; the minimum signal value represents the luminous signal intensity of the negative control hole without enzyme; and the target signal value represents the luminous signal intensity of the Test samples; and • fitting the data in XL-Fit with Equation (II) to obtain IC50 value:
[formula] • wherein Y is the inhibition rate, X is the concentration of the compound; Bottom is the lowest inhibition rate; Top is the highest inhibition rate; and HillSlope is the slope.

recombinant human His6-USP1/His6-UAF1 composite protein, sequence (O94782 whole entry): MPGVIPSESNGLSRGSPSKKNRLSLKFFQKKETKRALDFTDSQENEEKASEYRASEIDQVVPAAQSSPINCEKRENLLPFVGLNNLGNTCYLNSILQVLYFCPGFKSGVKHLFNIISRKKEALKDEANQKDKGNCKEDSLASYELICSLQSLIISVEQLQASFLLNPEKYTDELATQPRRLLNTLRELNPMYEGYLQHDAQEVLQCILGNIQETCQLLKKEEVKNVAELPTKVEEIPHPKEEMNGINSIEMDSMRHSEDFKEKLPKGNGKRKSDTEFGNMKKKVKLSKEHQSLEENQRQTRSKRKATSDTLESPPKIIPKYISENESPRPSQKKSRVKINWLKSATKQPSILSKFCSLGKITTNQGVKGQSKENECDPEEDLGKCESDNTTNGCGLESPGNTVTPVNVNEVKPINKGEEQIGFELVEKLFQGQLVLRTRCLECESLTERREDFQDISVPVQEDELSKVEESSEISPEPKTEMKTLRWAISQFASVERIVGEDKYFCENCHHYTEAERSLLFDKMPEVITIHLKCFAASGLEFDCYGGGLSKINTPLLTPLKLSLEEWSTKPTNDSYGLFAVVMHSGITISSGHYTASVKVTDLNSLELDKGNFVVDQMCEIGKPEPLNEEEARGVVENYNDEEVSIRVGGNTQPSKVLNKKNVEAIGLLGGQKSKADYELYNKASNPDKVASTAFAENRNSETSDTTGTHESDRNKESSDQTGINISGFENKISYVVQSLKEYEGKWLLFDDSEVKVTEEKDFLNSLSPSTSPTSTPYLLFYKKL
recombinant human His6-USP1/His6-UAF1 composite protein, sequence (Q8TAF3 whole entry partner): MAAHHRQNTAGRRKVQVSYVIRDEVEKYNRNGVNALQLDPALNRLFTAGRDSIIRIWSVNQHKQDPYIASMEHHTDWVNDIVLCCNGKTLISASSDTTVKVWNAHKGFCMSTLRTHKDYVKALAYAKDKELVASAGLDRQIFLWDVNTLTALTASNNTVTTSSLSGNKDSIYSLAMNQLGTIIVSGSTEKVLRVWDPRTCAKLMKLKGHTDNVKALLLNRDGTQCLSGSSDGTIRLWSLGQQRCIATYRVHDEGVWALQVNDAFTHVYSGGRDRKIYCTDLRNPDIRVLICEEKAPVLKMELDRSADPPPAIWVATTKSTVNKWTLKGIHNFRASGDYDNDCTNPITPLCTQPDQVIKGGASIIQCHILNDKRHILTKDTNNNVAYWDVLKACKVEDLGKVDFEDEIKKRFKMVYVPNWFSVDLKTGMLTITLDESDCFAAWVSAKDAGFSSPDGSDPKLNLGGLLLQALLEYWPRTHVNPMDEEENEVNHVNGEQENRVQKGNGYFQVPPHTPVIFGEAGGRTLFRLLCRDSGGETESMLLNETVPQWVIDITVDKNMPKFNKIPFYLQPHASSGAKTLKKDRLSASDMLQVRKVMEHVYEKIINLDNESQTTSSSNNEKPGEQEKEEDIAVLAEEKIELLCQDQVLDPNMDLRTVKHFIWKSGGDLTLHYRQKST

**Q.** For `COc1ncnc(C2CC2)c1-c1ncc2c3ccc(S(C)(=O)=O)cc3n(Cc3ccc(-c4nc(C(F)(F)F)cn4C(C)C)cc3)c2n1` [Compound 14], which IC50 is on record?
**A.** 4.32 nM

**Q.** `COc1ncnc(C2CC2)c1-c1ncc2c3cn(C)nc3n(Cc3ccc(-c4nc(C(F)(F)F)c5n4CCC5)cc3)c2n1` [Compound 114] was tested. Which IC50 did it give?
**A.** 1.89 nM

**Q.** Which IC50 does the source give for `COc1ncnc(C2CC2)c1-c1ncc2c3ncccc3n(Cc3ccc(-c4nc(C(F)(F)F)cn4C(C)C)cc3)c2n1` [Compound 3, 2-(4-cyclopropyl-6-methoxypyrimidin-5-yl)-9-(4-(1-isopropyl-4-(trifluoromethyl)-1H-imidazo 1-2-yl)benzyl)-9H-pyridino[2′,3′: 4,5]pyrrolo[2,3-d]pyrimidine] here?
**A.** 5.55 nM

**Q.** With `COc1ncnc(C2CC2)c1-c1ncc2c3ccc(N4CC(OC)C4)nc3n(Cc3ccc4c(c3)CCCn3cc(C(F)(F)F)nc3-4)c2n1` [Compound 137] as the molecule, how does the IC50 read?
**A.** 1.54 nM

**Q.** How did the IC50 turn out when `COc1ncnc(C2CC2)c1-c1ncc2c3cn(C)nc3n(Cc3ccc(-c4nc(C(F)(F)F)c5n4CCOC5)cc3)c2n1` [Compound 139] was run?
**A.** 23.5 nM

**Q.** `COc1ncnc(C2CC2)c1-c1ncc2c3ccccc3n(Cc3ccc(-n4nc(C(F)(F)F)cc4C)cc3)c2n1` [Compound 17] was tested. Which IC50 did it give?
**A.** 9.28 nM

**Q.** `COc1ncnc(C2CC2)c1-c1ncc2c3ccc(NS(C)(=O)=O)cc3n(Cc3ccc(-c4nc(C(F)(F)F)cn4C)cc3)c2n1` [Compound 59] was tested. Which IC50 did it give?
**A.** 7.21 nM

**Q.** Which IC50 does the source give for `COc1ncnc(C2CC2)c1-c1ncc2c3ccccc3n(Cc3ccc(-c4nc(C(F)(F)F)cn4C(C)C)nc3)c2n1` [Compound 16] here?
**A.** 7.55 nM

**Q.** With `COc1ncnc(C2CC2)c1-c1ncc2c3c(C(N)=O)cccc3n(Cc3ccc(-c4nc(C(F)(F)F)cn4C)cc3)c2n1` [Compound 47] as the molecule, how does the IC50 read?
**A.** 5.26 nM

**Q.** How did the IC50 turn out when `COc1ncnc(C2CC2)c1-c1ncc2c3ccncc3n(Cc3ccc4c(ccn5cc(C(F)(F)F)nc45)c3)c2n1` [Compound 67] was run?
**A.** 36.1 nM

**Q.** How did the IC50 turn out when `COc1ncnc(C2CC2)c1-c1ncc2c3ccc(C#N)cc3n(Cc3cc4c(cn3)-c3nc(C(F)(F)F)cn3CCC4)c2n1` [Compound 119] was run?
**A.** 17.8 nM

**Q.** `COc1ncnc(C2CC2)c1-c1ncc2c3cn(C)nc3n(Cc3ccc(-c4nc(C(F)(F)F)cn4C(C)C)c(F)c3)c2n1` [Compound 107] was tested. Which IC50 did it give?
**A.** 4.65 nM

**Q.** `COc1ncnc(C2CC2)c1-c1ncc2c3cn(C)nc3n(Cc3cc(F)c(-c4nc(C(F)(F)F)c5n4CCC5)c(F)c3)c2n1` [Compound 144] was tested. Which IC50 did it give?
**A.** 3.17 nM

**Q.** Which IC50 does the source give for `COc1ncnc(C2CC2)c1-c1ncc2c3ccc(C(F)F)cc3n(Cc3ccc(-c4nc(C(F)(F)F)cn4C)cc3)c2n1` [Compound 40] here?
**A.** 15.1 nM

**Q.** For `CCOc1cc(C(F)(F)F)nn1-c1ccc(Cn2c3ccccc3c3cnc(-c4c(OC)ncnc4C4CC4)nc32)cc1` [Compound 10, 2-(4-cyclopropyl-6-methoxypyrimidin-5-yl)-9-(4-(5-ethoxy-3-(trifluoromethyl)-1H-pyrazol-1-yl)benzyl)-9H-pyrimido[4,5-b]indole], which IC50 is on record?
**A.** 17.8 nM

**Q.** With `COc1ncnc(C2CC2)c1-c1ncc2c3cccc(OC)c3n(Cc3ccc(-c4nc(C(F)(F)F)cn4C(C)C)cc3)c2n1` [Compound 46] as the molecule, how does the IC50 read?
**A.** 3.6 nM

**Q.** How did the IC50 turn out when `COc1ncnc(C2CC2)c1-c1ncc2c3cc(F)ccc3n(Cc3ccc(-c4nc(C(F)(F)F)cn4C(C)C)cc3)c2n1` [Compound 15] was run?
**A.** 12.2 nM

**Q.** `COc1ncnc(C2CC2)c1-c1ncc2c3cccc(F)c3n(Cc3ccc(-c4nc(C(F)(F)F)cn4C)cc3)c2n1` [Compound 27] was tested. Which IC50 did it give?
**A.** 9.95 nM

**Q.** `COc1cc(Cn2c3ccccc3c3cnc(-c4c(OC)ncnc4C4CC4)nc32)ccc1-c1nc(C(F)(F)F)cn1C(C)C` [Compound 18] was tested. Which IC50 did it give?
**A.** 7.38 nM

**Q.** How did the IC50 turn out when `COc1ncnc(C2CC2)c1-c1ncc2c3cnn(C)c3n(Cc3ccc4c(c3)CCCn3cc(C(F)(F)F)nc3-4)c2n1` [Compound 123] was run?
**A.** 13.7 nM

**Q.** For `COc1ncnc(C2CC2)c1-c1ncc2c3ccc(C#N)cc3n(Cc3ccc(-c4nc(C(F)(F)F)cn4C)cc3)c2n1` [Compound 21], which IC50 is on record?
**A.** 4.39 nM

**Q.** Which IC50 does the source give for `CC(C)c1ncccc1-c1ncc2c3ccncc3n(Cc3ccc(-c4nc(C(F)(F)F)cn4C)cc3)c2n1` [Compound 80] here?
**A.** 6.55 nM

**Q.** For `COc1ncnc(C2CC2)c1-c1ncc2c3ccc(N4CCOCC4)nc3n(Cc3ccc4c(c3)CCCn3cc(C(F)(F)F)nc3-4)c2n1` [Compound 135], which IC50 is on record?
**A.** 4.4 nM

**Q.** How did the IC50 turn out when `COc1ncnc(C2CC2)c1-c1ncc2c3ccc(CS(C)(=O)=O)cc3n(Cc3ccc4c(c3)CCCn3cc(C(F)(F)F)nc3-4)c2n1` [Compound 83] was run?
**A.** 4.62 nM

**Q.** With `COc1ncnc(C2CC2)c1-c1ncc2c3ccccc3n(Cc3ccc(-c4nc(C(F)(F)F)cn4C(C)C)cc3)c2n1` [Compound 2, 2-(4-cyclopropyl-6-methoxypyrimidin-5-yl)-9-(4-(1-isopropyl-4-(trifluoromethyl)-1H-imidazo 1-2-yl)benzyl)-9H-pyrimido[4,5-b]indole] as the molecule, how does the IC50 read?
**A.** 7.55 nM

**Q.** For `COc1ncnc(C2CC2)c1-c1ncc2c3cccnc3n(Cc3ccc(-c4nc(C(F)(F)F)cn4C)cc3)c2n1` [Compound 53], which IC50 is on record?
**A.** 5.58 nM

**Q.** How did the IC50 turn out when `COc1ncnc(C2CC2)c1-c1ncc2c3ccnc(F)c3n(Cc3ccc(-c4nc(C(F)(F)F)cn4C)cc3)c2n1` [Compound 116] was run?
**A.** 6.48 nM

**Q.** With `COc1ncnc(C2CC2)c1-c1ncc2c3ccncc3n(Cc3ccc4c(c3)CCn3cc(C(F)(F)F)nc3-4)c2n1` [Compound 65] as the molecule, how does the IC50 read?
**A.** 59.6 nM

**Q.** With `COc1ccc2c3cnc(-c4c(OC)ncnc4C4CC4)nc3n(Cc3ccc4c(c3)CCCn3cc(C(F)(F)F)nc3-4)c2n1` [Compound 93] as the molecule, how does the IC50 read?
**A.** 2.56 nM

**Q.** With `COc1ncnc(C2CC2)c1-c1ncc2c3ccc(F)nc3n(Cc3ccc(-c4nc(C(F)(F)F)cn4C)cc3)c2n1` [Compound 73] as the molecule, how does the IC50 read?
**A.** 4.9 nM

**Q.** Which IC50 does the source give for `COc1ncnc(C2CC2)c1-c1ncc2c3ccccc3n([C@@H](C)c3ccc(-c4nc(C(F)(F)F)cn4C(C)C)cc3)c2n1` [Compound 13-P1] here?
**A.** 6.01 nM

**Q.** Which IC50 does the source give for `COc1ncnc(C2CC2)c1-c1ncc2c3ccc(C(N)=O)cc3n(Cc3ccc(-c4nc(C(F)(F)F)cn4C)cc3)c2n1` [Compound 28] here?
**A.** 5.95 nM

**Q.** With `CC(C)c1ccccc1-c1ncc2c3ccncc3n(Cc3ccc(-c4nc(C(F)(F)F)cn4C)cc3)c2n1` [Compound 79] as the molecule, how does the IC50 read?
**A.** 2.04 nM

**Q.** How did the IC50 turn out when `COc1ncnc(C2CC2)c1-c1ncc2c3ccc(C#N)cc3n(Cc3ccc(-c4nc(C(F)(F)F)c(C5CC5)n4C)cc3)c2n1` [Compound 164] was run?
**A.** 12 nM

**Q.** `Cn1cc(C(F)(F)F)nc1-c1ccc(Cn2c3cnccc3c3cnc(-c4cccc5ccn(C)c45)nc32)cc1` [Compound 85] was tested. Which IC50 did it give?
**A.** 73.5 nM

**Q.** For `COc1ncnc(C2CC2)c1-c1ncc2c3cc(C#N)ccc3n(Cc3ccc(-c4nc(C(F)(F)F)cn4C(C)C)cc3)c2n1` [Compound 12], which IC50 is on record?
**A.** 58.3 nM

**Q.** Which IC50 does the source give for `CCP(=O)(CC)c1ccc2c3cnc(-c4c(OC)ncnc4C4CC4)nc3n(Cc3ccc4c(c3)CCCn3cc(C(F)(F)F)nc3-4)c2c1` [Compound 154] here?
**A.** 6.2 nM

**Q.** For `COc1ncnc(C2CC2)c1-c1ncc2c3cn(C)nc3n(Cc3ccc4c(c3)C3C(Cn5cc(C(F)(F)F)nc5-4)C3(F)F)c2n1` (stereo not drawn) [Compound 133], which IC50 is on record?
**A.** 22 nM

**Q.** With `COc1ncnc(C2CC2)c1-c1ncc2c3ccncc3n(Cc3ccc(-c4nc(C(F)(F)F)c(Br)n4C)cc3)c2n1` [Compound 152] as the molecule, how does the IC50 read?
**A.** 11 nM

**Q.** `COc1ncnc(C2CC2)c1-c1ncc2c3cc(S(C)(=O)=O)ccc3n(Cc3ccc(-c4nc(C(F)(F)F)cn4C)cc3)c2n1` [Compound 37] was tested. Which IC50 did it give?
**A.** 58 nM

**Q.** Which IC50 does the source give for `COc1ncnc(C2CC2)c1-c1ncc2c3ccc(C#N)cc3n(Cc3ccc(-c4nc(C(F)(F)F)cn4C(C)C)cc3)c2n1` [Compound 51] here?
**A.** 5.9 nM

**Q.** Which IC50 does the source give for `COc1ncnc(C2CC2)c1-c1ncc2c3sncc3n(Cc3ccc(-c4nc(C(F)(F)F)cn4C)cc3)c2n1` [Compound 60] here?
**A.** 5.34 nM

**Q.** With `COc1ncnc(C2CC2)c1-c1ncc2c3ccncc3n(Cc3ccc4c(c3)CCCCn3cc(C(F)(F)F)nc3-4)c2n1` [Compound 90] as the molecule, how does the IC50 read?
**A.** 3.65 nM

**Q.** How did the IC50 turn out when `[2H]C([2H])([2H])n1cc2c3cnc(-c4c(OC)ncnc4C4CC4)nc3n(Cc3ccc(-c4nc(C(F)(F)F)cn4C(C)C)cc3)c2n1` [Compound 110] was run?
**A.** 9.5 nM

**Q.** With `COc1ncnc(C2CC2)c1-c1ncc2c3ccc(N4CC(O)C4)nc3n(Cc3ccc4c(c3)CCCn3cc(C(F)(F)F)nc3-4)c2n1` [Compound 136] as the molecule, how does the IC50 read?
**A.** 1.34 nM

**Q.** With `COc1ncnc(C2CC2)c1-c1ncc2c3ccc(P(C)(C)=O)cc3n(Cc3ccc4c(c3)CCCn3cc(C(F)(F)F)nc3-4)c2n1` [Compound 96] as the molecule, how does the IC50 read?
**A.** 4.89 nM

**Q.** `COc1ncnc(C2CC2)c1-c1ncc2c3ccccc3n(Cc3ccc(-n4nc(C)cc4C(F)(F)F)cc3)c2n1` [Compound 24] was tested. Which IC50 did it give?
**A.** 35.5 nM

**Q.** With `COc1ncnc(C2CC2)c1-c1ncc2c3ccncc3n(Cc3ccc(-c4nc(C(F)(F)F)cn4C)cc3)c2n1` [Compound 55] as the molecule, how does the IC50 read?
**A.** 7.9 nM

**Q.** With `CN1CCc2cccc(-c3ncc4c5ccncc5n(Cc5ccc(-c6nc(C(F)(F)F)cn6C)cc5)c4n3)c21` [Compound 84] as the molecule, how does the IC50 read?
**A.** 59 nM

**Q.** For `COc1ncnc(C2CC2)c1-c1ncc2c3ccc(C#N)cc3n(Cc3cc(O)c4c(c3)OCCn3cc(C(F)(F)F)nc3-4)c2n1` [Compound 77], which IC50 is on record?
**A.** 99.1 nM

**Q.** With `COc1ncnc(C2CC2)c1-c1ncc2c3ccccc3n(Cc3ccc(-c4nc(C(F)(F)F)cn4C)cc3)c2n1` [Compound 1, 2-(4-cyclopropyl-6-methoxypyrimidin-5-yl)-9-(4-(1-methyl-4-(trifluoromethyl)-1H-imidazol-2-yl)benzyl)-9H-pyrimido[4,5-b]indole] as the molecule, how does the IC50 read?
**A.** 4.04 nM

**Q.** For `COc1ncnc(C2CC2)c1-c1ncc2c3cn[nH]c3n(Cc3ccc(C4NC(C(F)(F)F)=CN4C(C)C)cc3)c2n1` (stereo not drawn) [Compound 89], which IC50 is on record?
**A.** 4.7 nM

**Q.** How did the IC50 turn out when `COC(=O)c1ccc2c3cnc(-c4c(OC)ncnc4C4CC4)nc3n(Cc3ccc(-c4nc(C(F)(F)F)cn4C)cc3)c2c1` [Compound 42] was run?
**A.** 30.4 nM

**Q.** With `COc1ncnc(C2CC2)c1-c1ncc2c3ncncc3n(Cc3ccc4c(c3)CCCn3cc(C(F)(F)F)nc3-4)c2n1` [Compound 112] as the molecule, how does the IC50 read?
**A.** 23.9 nM

**Q.** `COc1ncnc(C2CC2)c1-c1ncc2c3ccc(S(N)(=O)=O)cc3n(Cc3ccc(-c4nc(C(F)(F)F)cn4C)cc3)c2n1` [Compound 30] was tested. Which IC50 did it give?
**A.** 5.71 nM

**Q.** How did the IC50 turn out when `COc1ncnc(C2CC2)c1-c1ncc2c3ccc(C(C)(C)O)cc3n(Cc3ccc(-c4nc(C(F)(F)F)cn4C)cc3)c2n1` [Compound 38] was run?
**A.** 12.1 nM

**Q.** How did the IC50 turn out when `COc1ncnc(C2CC2)c1-c1ncc2c3cn(C)nc3n(Cc3ccc(-c4nc(C(F)(F)F)cs4)cc3)c2n1` [Compound 166] was run?
**A.** 10.2 nM
